From patent publication US20050154031A1, “5-Ht2b receptor antagonists” (priority 2002, published 2005)

Columns and labels:
[1] = target: T1, human cloned 5-HT2B receptors (Homo sapiens, UniProt P41595); experiment: Human cloned 5-HT2B cell-based functional assay (Fluo-4, block of 5-HT response); conditions: CHO.K1 cells expressing cloned 5-HT2B receptor, inhibition of the 5-HT response
T1 construct: expressed in transfected cells; host or cells: CHO-K1
Experimental: Human Cloned […] Cell-Based Functional Assay The following describes an in vitro functional assay using human cloned 5-HT2B receptors to determine the ability of compounds to block the receptor. CHO.K1 cells expressing cloned 5-HT2B receptor were maintained In Ultra-CHO medium containing 400 μg/ml of G418, 100 U/ml penicillin, 100 μg/ml streptomycin, 2.5 μg/ml fungizone, in 95/5% O2/CO2 at 37° C. Ultra-CHO medium additionally supplemented with 1% foetal bovine serum was used when seeding the cells and removed after 5 hours. Cells were plated in Costar 96 well white, clear-bottomed plate at a density of 50,000 cells per well and incubated for at least 24 hours in 95/5% O2/CO2 at 37° C. before running the assay. Media was removed from the wells and 200 μl of 4 μM Fluo-4 AM added, this was incubated in a Wallace Victor 2V workstation at 37° C. for 30 minutes. The Fluo-4 AM was then removed from the wells, which were then washed twice with 200 μl of buffer (HBSS without calcium/magnesium/phenol red, 20 mM HEPES, 1 mM Ca^2+, 1 mM Mg^2+, 2.5 mM probenecid, pH to 7.4), 180 μl of buffer or test compound was added to the well and incubated for 30 minutes. The Victor 2V injectors were used to inject 20 μl of 5-HT after obtaining 10 0.1-second baseline readings at 535 nm, followed by 150 readings. All test compounds were aliquoted in 100% DMSO at 10 mM and diluted to 1 mM in 50% DMSO, subsequent dilutions were made using buffer. Buffer was also used to dilute the 5-HT. Data were analysed using Microsoft Excel and GraphPad Prism, with the latter used to produce sigmoidal dose-response curves for each compound. The compound concentration that inhibited the 5-HT response by 50% was taken (IC50−M), and the results are shown in Table 2, as pIC50, being the negative log (to the base 10) of the measured IC50 values.

[2] = target: T1, human cloned 5-HT2B receptors; experiment: Human cloned 5-HT2B receptor binding assay ([3H]LSD); conditions: membranes of CHO-K1 cells expressing cloned 5-HT2B receptor, [3H]LSD 1 nM; read-out: 5-HT2B pKi (converted)
Experimental: Human Cloned 5-HT2B Receptor Binding Assay
The binding affinity of the compounds for human cloned 5-HT2B receptors was determined using the following assay.
CHO-K1 cells expressing cloned 5-HT2B receptor were maintained in Ultra-CHO medium containing 400 μg/ml of G418, 100 U/ml penicillin, 100 μg/ml streptomycin, 2.5 μg/ml fungizone and 1% foetal bovine serum, in 95/5% O2/CO2 at 37° C. The cells were harvested using 0.25% trypsin and were centrifuged at 800 rpm for 8 minutes. The cells were homogenised in 50 mM HEPES buffer containing 1 mM disodium EDTA and 1 mM PMSF at pH 7.4, using a Dounce homogeniser (20 strokes). The homogenate was centrifuged at 2280 rpm (1000 g) and 4° C. for 10 minutes, after which the supernatant was removed by decanting. The pellet was re-homogenised as above, and the resulting supernatant removed and combined with that already obtained. The supernatant solution was then centrifuged at 18300 rpm (40000 g) for 10 minutes at 4° C. using a Sorvall centrifuge. The supernatant was removed, and the pellet was re-suspended in 50 mM buffer at pH 7.4 using a Ultra-turrax T25 Polytron, before centrifugation again at 40000 g as above. This wash procedure was repeated, after which the membrane preparation was stored at a concentration of 1 mg/ml at −80° C. until use.
The membranes were thawed rapidly and diluted in assay buffer containing Tris-HCl (50 mM, pH 7.4), ascorbic acid (0.1%) and calcium chloride (4 mM). The membranes were homogenised to resuspend them, prior to adding 10 or 15 μg of membranes to assay wells containing [^3H]LSD (1 nM), assay buffer (50 mM Tris, 4 mM calcium chloride and 0.1% ascorbic acid) containing pargyline (10 μM), and the test compounds (1×10^−10 to 1×10^−4 M). Non specific binding was determined in the presence of 100 μM 5-HT. After 30 minutes incubation at 37° C., the assay mixture was filtered through a combination of GF-C and GF-B filters, pre-soaked in 1% polyethyleneimine, using a Brandel cell harvester, and were washed three times using 50 mM Tris-HCl. Radioactivity retained on the filters was determined by liquid scintillation counting. For each test compound, the concentration that inhibited binding of [^3H)LSD by 50% was determined using curve fitting software (Prism). Kd values (concentration of LSD required to occupy 50% of the receptor binding sites at equilibrium) determined from saturation binding studies were then used to calculate inhibition dissociation constants (Ki) using the following equation: [formula]
This approach follows that set out in Kenakin, T. P. Pharmacologic analysis of drug-receptor interaction. Raven Press, New York, 2nd Edition, which is incorporated herein by reference.

[3] = target: T2, cloned human 5-HT2A receptor (Homo sapiens, UniProt P28223); experiment: Human 5-HT2A receptor binding assay ([3H]ketanserin); conditions: membranes of CHO-K1 cells expressing cloned human 5-HT2A receptor, [3H]ketanserin 1 nM; read-out: 5-HT2A pKi (converted)
T2 construct: purchased Euroscreen; host or cells: CHO-K1
T2 sequence (P28223 whole entry): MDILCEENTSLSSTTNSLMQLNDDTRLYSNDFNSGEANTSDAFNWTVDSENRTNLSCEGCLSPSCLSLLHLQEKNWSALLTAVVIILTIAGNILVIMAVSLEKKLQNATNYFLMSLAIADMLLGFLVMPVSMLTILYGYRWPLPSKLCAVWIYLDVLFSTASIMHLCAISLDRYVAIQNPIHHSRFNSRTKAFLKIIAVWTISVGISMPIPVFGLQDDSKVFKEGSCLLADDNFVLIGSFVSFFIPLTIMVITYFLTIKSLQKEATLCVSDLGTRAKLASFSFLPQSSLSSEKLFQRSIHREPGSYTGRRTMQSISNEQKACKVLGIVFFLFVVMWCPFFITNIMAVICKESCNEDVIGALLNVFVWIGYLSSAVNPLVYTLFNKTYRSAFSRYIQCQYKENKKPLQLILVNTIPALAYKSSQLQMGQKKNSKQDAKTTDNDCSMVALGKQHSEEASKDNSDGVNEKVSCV
Experimental: (§1) Human 5-HT2A and 5-HT2C Receptor Binding Assays
(§2) The binding affinity of ligands for human 5-HT2A and 5-HT2C receptors was determined using the following assay.
Membrane preparations from CHO-K1 cells expressing the cloned human 5-HT2A receptor were obtained (Euroscreen). The membranes were thawed rapidly and diluted in assay buffer containing Tris-HCl (50 mM, pH 7.7). The membranes were resuspended by homogenisation, prior to adding 15 μg of membranes to assay wells containing [^3H] ketanserin (1 nM), assay buffer (50 mM Tris at pH 7.4) containing pargyline (10 μM), and test compounds (1×10^−10 to 1×10^−4M). Non specific binding was determined in the presence of 100 μM mianserin. After 15 minutes incubation at 37° C., the assay mixture was filtered through a combination of GF-C and GF-B filters, pre-soaked in 0.05% Brij, using a Brandel cell harvester, and were washed three times using ice cold Tris-HCl buffer (50 mM). Radioactivity retained on the filters was determined by liquid scintillation counting. For each test compound, the concentration that inhibited binding of [^3H]ketanserin by 50% was determined using curve fitting software (Prism). Kd values (concentration of ketanserin required to occupy 50% of the receptor binding sites at equlibrium)determined from saturation binding studies were then used to calculate inhibition dissociation constants (Ki) using the following equation: [formula]

[4] = target: T3, cloned human 5-HT2C receptor (Homo sapiens, UniProt P28335); experiment: Human 5-HT2C receptor binding assay ([3H]mesulergine); conditions: membranes of CHO-K1 cells expressing cloned human 5-HT2C receptor, [3H]mesulergine 1 nM; read-out: 5-HT2C pKi (converted)
T3 construct: purchased Euroscreen; host or cells: CHO-K1
T3 sequence (P28335 33-458): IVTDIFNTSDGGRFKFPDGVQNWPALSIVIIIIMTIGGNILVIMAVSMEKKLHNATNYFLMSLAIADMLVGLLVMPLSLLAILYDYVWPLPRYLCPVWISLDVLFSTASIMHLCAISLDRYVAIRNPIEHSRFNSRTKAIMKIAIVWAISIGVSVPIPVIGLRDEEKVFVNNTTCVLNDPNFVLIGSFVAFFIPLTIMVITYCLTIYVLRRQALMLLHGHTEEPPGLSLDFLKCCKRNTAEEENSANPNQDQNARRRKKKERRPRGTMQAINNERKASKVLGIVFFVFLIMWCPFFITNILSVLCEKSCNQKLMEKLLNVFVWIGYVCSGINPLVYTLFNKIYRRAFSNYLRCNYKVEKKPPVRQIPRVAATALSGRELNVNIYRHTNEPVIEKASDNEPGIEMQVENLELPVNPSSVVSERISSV
Experimental: as §1, §2
Membrane preparations from CHO-K1 cells expressing the cloned human 5-HT2C receptor were obtained (Euroscreen). The membranes were thawed rapidly and diluted in assay buffer containing Tris-HCl (50 mM, pH 7.7), ascorbic acid (0.1%) and pargyline (10 μM). The membranes were resuspended by homogenisation, prior to adding 6 μg of membranes to assay wells containing [^3H] mesulergine (1 nM), assay buffer (50 mM Tris at pH 7.7 and 0.1% ascorbic acid) containing pargyline (10 μM), and test compounds (1×10^−10 to 1×10^−4M). Non specific binding was determined in the presence of 100 μM mianserin. After 30 minutes incubation at 37° C., the assay mixture was filtered through a combination of GF-C and GF-B filters, pre-soaked in 1% bovine serum albumin, using a Brandel cell harvester, and were washed three times using ice cold Tris-HCl buffer (50 mM). Radioactivity retained on the filters was determined by liquid scintillation counting. For each test compound, the concentration that inhibited binding of [^3H]mesulergine by 50% was determined using curve fitting software (Prism). Kd values (concentration of mesulergine required to occupy 50% of the receptor binding sites at equlibrium) determined from saturation binding studies were then used to calculate inhibition dissociation constants (Ki) using the following equation: [formula]

T1 sequence (P41595 whole entry): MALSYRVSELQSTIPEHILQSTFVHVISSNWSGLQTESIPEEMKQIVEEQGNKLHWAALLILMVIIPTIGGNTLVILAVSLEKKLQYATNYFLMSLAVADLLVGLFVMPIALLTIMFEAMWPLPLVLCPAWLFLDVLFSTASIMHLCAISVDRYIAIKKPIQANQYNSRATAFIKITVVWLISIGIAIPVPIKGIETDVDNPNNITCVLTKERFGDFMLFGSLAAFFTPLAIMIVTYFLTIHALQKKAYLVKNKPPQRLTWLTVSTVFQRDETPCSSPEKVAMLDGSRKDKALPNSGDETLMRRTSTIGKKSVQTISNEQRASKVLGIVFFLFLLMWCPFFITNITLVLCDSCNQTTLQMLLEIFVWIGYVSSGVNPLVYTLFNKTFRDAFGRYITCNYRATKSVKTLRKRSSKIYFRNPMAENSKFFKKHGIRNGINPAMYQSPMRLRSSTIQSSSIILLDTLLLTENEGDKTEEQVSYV

Structure (SMILES) | IC50 [1] [nM] | Ki [2] [nM] | Ki [3] [nM] | Ki [4] [nM]
Cc1sc(N)nc1-c1cccc2ccccc12 [Compound 1, 2-amino-5-methyl-4-(naphth-1-yl)thiazole] | < 1000 | < 1000 | > 10000 | > 1000
Nc1nc(-c2cccc3ccccc23)cs1 [Compound 3, 2-amino-4-(naphth-1-yl)thiazole] | < 1000 | < 1000 | > 1000 | > 1000
Nc1nc(-c2ccc3ccccc3c2)cs1 [Compound 4, 2-amino-4-(naphth-2-yl)thiazole] | < 10000 | < 10000 | > 10000 | > 10000
CC(C)c1sc(N)nc1-c1cccc2ccccc12 [Compound 2, 2-amino-5-isopropyl-4-(naphth-1-yl)thiazole] | < 100 | < 100 | > 1000 | > 1000
